# Measured values reported in US10716814B2, “Mesenchymal stem cells and uses therefor” (Mesoblast International Sárl, priority 2004, dated 2020).
# Columns and labels:
# DC1 cells = test: MSC co-culture with LPS-activated DC1 cells, TNF-α secretion; format: cell-based, human; settings: MSCs cultured with activated DC1 in presence of PGE2 inhibitor
# From the text: Peripheral blood mononuclear cells (PBMCs) were obtained from Poietics Technologies, Div of Cambrex Biosciences (Walkersville, Md.). Precursors of dendritic cells (DCs) of monocytic lineage (CD1c^+) were positively selected from PBMCs using a 2-step magnetic separation method according to Dzionek, et al., J. Immunol., Vol. 165, pg. 6037 (2000). Briefly, CD1c expressing B cells were magnetically depleted of CD19^+ cells using magnetic beads, followed by labeling the B-cell depleted fraction with biotin-labeled CD1c (BDCA1^+) and anti-biotin antibodies and separating them from the unlabeled cell fraction utilizing magnetic columns according to the manufacturer's instructions (Miltenyi Biotech, Auburn, Calif.). Precursors of DCs of plasmacytoid lineage were isolated from PBMCs by immuno-magnetic sorting of positively labeled antibody coated cells (BDCA2^+) (Miltenyi Biotech, Auburn, Calif.).
# In most experiments, human MSCs and DCs were cultured in equal numbers for various time periods and cell culture supernatant collected and stored at −80° C. until further evaluation. […] The non-adherent cell fraction (purified T cells) was then collected from the cultures, washed twice and re-stimulated with PHA for another 24 hours, following which cell culture supernatants were harvested and analyzed for secreted IFN-γ and IL-4 by ELISA. […]
# CD4+ Th cells = test: Generation of TH1/TH2 cells in presence or absence of MSCs, IFN-γ and IL-4 by ELISA; format: cell-based, human; settings: MSCs cultured with TH1 cells in presence of PGE2 inhibitor
# Procedure: Peripheral blood mononuclear cells (PBMCs) were plated at 2×10^6 cells/ml for 45 min. at 37°C. in order to remove monocytes. Non-adherent fraction was incubated in the presence of plate-bound anti-CD3 ([…]) and anti-CD28 (1 μg/ml) antibodies under TH1 (IL-2 (4 ng/ml)+IL-12 (5 ng/ml)+anti-IL-4 (1 μg/ml)) or TH2 (IL-2 (4 ng/ml)+Il-4 (4 ng/ml)+anti-IFN-γ (1 μg/ml)) conditions for 3 days in the presence or absence of MSCs. The cells were washed and then re-stimulated with PHA (2.5 μg/ml) for another 24 or 48 hours, following which levels of IFN-γ and IL-4 were measured in culture supernatants by ELISA (R&D Systems, Minneapolis, Minn.).
# MSCs = test: Secreted factors (PGE2, IL-6, VEGF, pro-MMP-1) in culture supernatant of MSCs; format: cell-based; settings: Homo sapiens, 24 hour culture, read-out: inhibition of PGE2 secretion by hMSCs
# Procedure: Using previously characterized human MSCs, the levels of Interleukin-6 (IL-6), VEGF, lipid mediator prostaglandin E2 (PGE2), and matrix metalloproteinase 1 (pro-MMP-1) were analyzed in culture supernatant of MSCs cultured for 24 hours in the presence or absence of PBMCs (MSC to PBMC ratio 1:10).
compound,measurement,setting,value
CS(=O)(=O)Nc1ccc([N+](=O)[O-])cc1OC1CCCCC1 [NS-398],TNF-α secretion by DC1s,DC1 cells,increased TNF-α secretion
same,IFN-γ secretion from TH1 cells,CD4+ Th cells,increased
same,inhibition at 5 µM,MSCs; NS-398 5 μM,60 to 90%
COc1ccc2c(c1)c(CC(=O)O)c(C)n2C(=O)c1ccc(Cl)cc1 [indomethacin],TNF-α secretion by DC1s,DC1 cells,increased TNF-α secretion
same,IFN-γ secretion from TH1 cells,CD4+ Th cells,increased
same,inhibition at 4 µM,MSCs; indomethacin 4 μM,60 to 90%
